Measurements as given in patent US20210323976A1, “HETEROARYL COMPOUNDS FOR KINASE INHIBITION” (ARIAD Pharmaceuticals, Inc., priority 2015, published 2021).

Key:
[1] = target: T1, Her2 exon 20 YVMA insertion (A775_G776ins YVMA) (Homo sapiens, UniProt P04626, INS775YVMA); assay: Ba/F3-Her2 Exon20 YVMA cell anti-proliferation assay (MTS); type: cell-based; conditions: Ba/F3-Her2 Exon20 YVMA cells, 72 h, MTS signal
T1 construct: expressed in transfected cells; host or cells: Ba/F3 (murine pro-B) cells, lentiviral transduction with pLVX-IRES puro
T1 sequence (P04626 with tags, fused parts or gaps INS775YVMA): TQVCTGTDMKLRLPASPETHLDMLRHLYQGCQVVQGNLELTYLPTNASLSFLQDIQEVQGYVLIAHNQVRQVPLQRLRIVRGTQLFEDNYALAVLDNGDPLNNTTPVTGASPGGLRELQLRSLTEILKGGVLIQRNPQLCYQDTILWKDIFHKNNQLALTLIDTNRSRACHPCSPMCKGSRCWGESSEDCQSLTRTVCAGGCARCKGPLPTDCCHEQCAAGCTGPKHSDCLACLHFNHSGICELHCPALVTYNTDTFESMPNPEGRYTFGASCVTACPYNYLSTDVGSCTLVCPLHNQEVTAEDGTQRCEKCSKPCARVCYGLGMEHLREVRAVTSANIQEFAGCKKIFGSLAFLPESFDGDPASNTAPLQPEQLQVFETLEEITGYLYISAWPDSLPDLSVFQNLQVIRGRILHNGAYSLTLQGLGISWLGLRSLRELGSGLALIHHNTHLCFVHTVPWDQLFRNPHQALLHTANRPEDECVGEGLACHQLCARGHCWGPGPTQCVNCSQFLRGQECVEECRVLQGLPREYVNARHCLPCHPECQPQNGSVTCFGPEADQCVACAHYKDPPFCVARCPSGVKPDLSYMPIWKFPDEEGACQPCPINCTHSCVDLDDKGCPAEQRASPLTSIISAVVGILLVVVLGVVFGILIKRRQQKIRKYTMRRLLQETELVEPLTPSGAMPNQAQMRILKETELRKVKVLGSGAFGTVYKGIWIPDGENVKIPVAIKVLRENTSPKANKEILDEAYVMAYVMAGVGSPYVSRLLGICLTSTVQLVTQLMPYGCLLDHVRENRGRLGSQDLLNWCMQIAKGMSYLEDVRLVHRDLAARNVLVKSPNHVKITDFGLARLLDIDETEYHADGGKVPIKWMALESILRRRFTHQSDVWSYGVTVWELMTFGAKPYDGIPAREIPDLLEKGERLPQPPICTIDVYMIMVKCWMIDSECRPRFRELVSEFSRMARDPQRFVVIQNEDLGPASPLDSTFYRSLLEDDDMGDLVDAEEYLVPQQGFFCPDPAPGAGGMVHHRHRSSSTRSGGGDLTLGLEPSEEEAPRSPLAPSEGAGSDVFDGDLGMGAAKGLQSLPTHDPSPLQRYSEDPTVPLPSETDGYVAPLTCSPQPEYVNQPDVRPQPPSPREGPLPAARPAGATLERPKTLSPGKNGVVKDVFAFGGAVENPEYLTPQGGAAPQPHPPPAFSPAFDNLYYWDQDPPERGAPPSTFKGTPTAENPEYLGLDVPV
Description: A compound's ability in selectively inhibiting Her2 exon 20 YVMA insertion mutations can be assessed using Ba/F3 cells, a murine pro-B cell line, which have been transduced with Her2 Exon20 YVMA insertions. An expression vector, pLVX-IRES puro (Clontech) coding for human EGFR exon 20 insertions YVMA (A775_G776ins YVMA), was transfected into HEK293 cells by the Trans-Lentiviral ORF Packaging System (Thermo Scientific), to produce virus encoding EGFR exon 20 insertions. Ba/F3 (DSMZ) cells maintained in RPM11640 medium supplemented with 10% fetal bovine serum, 200 pM L-glutamine/200 μg/mL penicillin/200 μg/mL streptomycin (Life Technology) and 10 ng/mL IL-3 (R&D system), were infected by EGFR Exon20 virus and subsequently selected by puromycin (Life Technology) selection and IL-3 depletion. Ba/F3 cells expressing Her2 Exon20 YVMA insertions (named Ba/F3-Her2 Exon20 YVMA) can proliferate in the absence of IL-3. The anti-proliferative activity of compounds was determined as follows: BaF3-Her2 Exon20 YVMA cells seeded in 96 well plates (2500 cells/well) were treated with test compound (dissolved in DMSO) at a series of concentrations (4-fold dilution, top concentration: 10,000 nM). The plates were incubated for 72 h in a 37° C. incubator with 5% CO2, and the number of viable cells in each well were measured indirectly by CellTiter 96® Aqueous One Solution Cell Proliferation Assay (Promega; this assay is a colorimetric method for determining the number of viable cells through measurement of their metabolic activity by detection of enzymatic conversion of tetrazolium salts into blue formazan derivatives). Reagent (20 pL) was added into each well, and the plates were returned to the incubator for 2 h. The absorbance in each well was then measured at 490 nm using an Envision plate reader (Perkin Elmer). IC50 values were calculated by determining the concentration of compound required to decrease the MTS signal by 50% comparing to the DMSO control in best-fit curves using Microsoft XLfit software or Accelrys Pipeline Pilot.

[2] = target: EGFR exon 20 NPG insertion (H773_V774insNPG) (Homo sapiens, UniProt P00533, cells depend on it, form not given); assay: Ba/F3-EGFR-Exon20-NPG cell anti-proliferation assay (MTS, CellTiter 96 AQueous One); type: cell-based; conditions: 72 h, MTS signal
EGFR exon 20 NPG insertion (H773_V774insNPG), sequence (P00533 with tags, fused parts or gaps INS772GNP, form open): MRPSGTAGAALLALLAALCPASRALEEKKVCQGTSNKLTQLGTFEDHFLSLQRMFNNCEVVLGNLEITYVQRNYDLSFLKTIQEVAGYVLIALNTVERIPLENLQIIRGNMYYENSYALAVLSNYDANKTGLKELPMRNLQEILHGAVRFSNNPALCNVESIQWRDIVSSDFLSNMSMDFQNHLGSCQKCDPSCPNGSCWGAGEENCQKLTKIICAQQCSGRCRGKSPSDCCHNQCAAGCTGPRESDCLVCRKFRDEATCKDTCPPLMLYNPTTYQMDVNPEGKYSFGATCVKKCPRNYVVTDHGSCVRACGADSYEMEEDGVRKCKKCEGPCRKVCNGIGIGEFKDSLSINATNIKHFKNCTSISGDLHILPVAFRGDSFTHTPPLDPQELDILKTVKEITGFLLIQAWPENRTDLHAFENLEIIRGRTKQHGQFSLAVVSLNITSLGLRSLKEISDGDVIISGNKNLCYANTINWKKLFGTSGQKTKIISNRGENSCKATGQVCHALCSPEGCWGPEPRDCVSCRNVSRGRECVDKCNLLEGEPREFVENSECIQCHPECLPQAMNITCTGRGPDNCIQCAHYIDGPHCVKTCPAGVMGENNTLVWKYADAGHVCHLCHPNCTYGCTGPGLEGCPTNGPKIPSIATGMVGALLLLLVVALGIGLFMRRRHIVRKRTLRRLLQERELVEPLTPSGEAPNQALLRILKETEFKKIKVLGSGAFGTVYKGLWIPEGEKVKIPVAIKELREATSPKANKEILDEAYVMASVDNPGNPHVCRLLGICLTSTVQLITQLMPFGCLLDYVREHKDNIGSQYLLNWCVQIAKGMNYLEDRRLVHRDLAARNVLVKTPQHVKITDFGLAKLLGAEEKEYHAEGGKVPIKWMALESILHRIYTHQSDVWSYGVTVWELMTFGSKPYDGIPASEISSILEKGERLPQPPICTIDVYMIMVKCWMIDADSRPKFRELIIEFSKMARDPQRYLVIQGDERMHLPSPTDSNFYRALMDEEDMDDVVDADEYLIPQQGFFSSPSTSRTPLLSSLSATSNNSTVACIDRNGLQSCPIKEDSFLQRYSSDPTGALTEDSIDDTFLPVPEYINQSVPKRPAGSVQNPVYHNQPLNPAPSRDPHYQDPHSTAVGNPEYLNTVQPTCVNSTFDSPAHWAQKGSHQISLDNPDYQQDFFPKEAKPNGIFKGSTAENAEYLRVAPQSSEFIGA
Description: A compound's ability in selectively inhibiting EGFR exon 20 insertion mutations can be assessed using Ba/F3 cells, a murine pro-B cell line, which have been transduced with EGFR exon 20 insertions. An expression vector, pLVX-IRES puro (Clontech) coding for human EGFR exon 20 insertions NPG (H773_V774insNPG) or ASV (V769_D770insASV), was transfected into HEK293 cells by the Trans-Lentiviral ORF Packaging System (Thermo Scientific), to produce virus encoding EGFR exon 20 insertions. Ba/F3 (DSMZ) cells maintained in RPM11640 medium supplemented with 10% fetal bovine serum, 200 pM L-glutamine/200 µg/mL penicillin/200 µg/mL streptomycin (Life Technology) and 10 ng/mL IL-3 (R&D system), were infected by EGFR Exon20 virus and subsequently selected by puromycin (Life Technology) selection and IL-3 depletion. Ba/F3 cells expressing EGFR exon 20 insertions (named Ba/F3-EGFR-Exon20-NPG or Ba/F3-EGFR-Exon20-ASV) can proliferate in the absence of IL-3. The anti-proliferative activity of compounds were determined as follows: BaF3-EGFR-Exon20 cells (NPG or ASV) seeded in 96 well plates (2500 cells/well) were treated with test compound (dissolved in DMSO) at a series of concentrations (4-fold dilution, top concentration: 10,000 nM). The plates were incubated for 72 h in a 37° C. incubator with 5% CO2, and the number of viable cells in each well were measured indirectly by CellTiter 96® Aqueous One Solution Cell Proliferation Assay (Promega) This assay is a colorimetric method for determining the number of viable cells through measurement of their metabolic activity by detection of enzymatic conversion of tetrazolium salts into blue formazan derivatives. Reagent (20 pL) was added into each well, and the plates were returned to the incubator for 2 h. The absorbance in each well was then measured at 490 nm using an Envision plate reader (Perkin Elmer). IC50 values were calculated by determining the concentration of compound required to decrease the MTS signal by 50% comparing to the DMSO control in best-fit curves using Microsoft XLfit software or Accelrys Pipeline Pilot.

| IC50 [1] [nM] | IC50 [2] [nM] | Structure (SMILES) |
| --- | --- | --- |
| 100 to 500 | – | C=CC(=O)Nc1cc(Nc2nccc(-c3c4n(c5ccccc35)CC(OC)CC4)n2)c(OC)cc1N(C)CCN(C)C (stereo not shown) [Example 7, N-(2-((2-(dimethylamino)ethyl)(methyl)amino)-4-methoxy-5-((4-(7-methoxy-6,7,8,9-tetrahydropyrido[1,2-a]indol-10-yl)pyrimidin-2-yl)amino)phenyl)acrylamide] |
| < 100 | – | C=CC(=O)Nc1cc(Nc2nccc(-n3c4c(c5ccccc53)CC(O)CC4)n2)c(OC)cc1N(C)CCN(C)C (stereo not shown) [Example 10, N-(2-((2-(dimethylamino)ethyl)(methyl)amino)-5-((4-(3-hydroxy-1,2,3,4-tetrahydro-9H-carbazol-9-yl)pyrimidin-2-yl)amino)-4-methoxyphenyl)acrylamide] |
| 100 to 500 | – | C=CC(=O)Nc1cc(Nc2nccc(-c3c4n(c5ccccc35)CC(O)C(O)C4)n2)c(OC)cc1N(C)CCN(C)C (stereo not drawn) [Example 6, N-(5-((4-(cis-7,8-dihydroxy-6,7,8,9-tetrahydropyrido[1,2-a]indol-10-yl)pyrimidin-2-yl)amino)-2-((2-(dimethylamino)ethyl)(methyl)amino)-4-methoxyphenyl)acrylamide] |
| 100 to 500 | – | C=CC(=O)Nc1cc(Nc2nccc(-c3c4n(c5ccccc35)CCCC4)n2)c(OC)cc1N(C)CCN(C)C [Example 5, N-(2-((2-(dimethylamino)ethyl)(methyl)amino)-4-methoxy-5-((4-(6,7,8,9-tetrahydropyrido[1,2-a]indol-10-yl)pyrimidin-2-yl)amino)phenyl)acrylamide] |

The next lines start with the compound.

| Structure (SMILES) | IC50 [1] [nM] | IC50 [2] [nM] |
| --- | --- | --- |
| C=CC(=O)Nc1cc(Nc2nccc(-c3c4n(c5ccccc35)CC3OC(C)(C)OC3C4)n2)c(OC)cc1N(C)CCN(C)C (stereo not drawn) [Example 4, N-(5-((4-(cis-2,2-dimethyl-3a,4,11,11a-tetrahydro-[1,3]dioxolo[4′,5′:4,5]pyrido[1,2-a]indol-10-yl)pyrimidin-2-yl)amino)-2-((2-(dimethylamino)ethyl)(methyl)amino)-4-methoxyphenyl)acrylamide] | < 100 | – |
| C=CC(=O)Nc1cc(Nc2nccc(-c3c4n(c5ccccc35)CCOC4)n2)c(OC)cc1N(C)CCN(C)C [Example 1, N-(5-((4-(3,4-dihydro-1H-[1,4]oxazino[4,3-a]indol-10-yl)pyrimidin-2-yl)amino)-2-((2-(dimethylamino)ethyl)(methyl)amino)-4-methoxyphenyl)acrylamide] | 100 to 500 | < 100 |
| C=CC(=O)Nc1cc(Nc2nccc(-c3c4n(c5ccccc35)CCN(C)C4=O)n2)c(OC)cc1N(C)CCN(C)C [Example 2, N-(2-((2-(dimethylamino)ethyl)(methyl)amino)-4-methoxy-5-((4-(2-methyl-1-oxo-1,2,3,4-tetrahydropyrazino[1,2-a]indol-10-yl)pyrimidin-2-yl)amino)phenyl)acrylamide] | > 1000 | – |
| C=CC(=O)Nc1cc(Nc2nccc(-c3c4n(c5ccccc35)CC(O)CC4)n2)c(OC)cc1N(C)CCN(C)C (stereo not shown) [Example 3, N-(2-((2-(dimethylamino)ethyl)(methyl)amino)-5-((4-(7-hydroxy-6,7,8,9-tetrahydropyrido[1,2-a]indol-10-yl)pyrimidin-2-yl)amino)-4-methoxyphenyl)acrylamide] | 100 to 500 | < 100 |
